{
  "source": "the supplement of paper PMC10307832",
  "assay_in_all_cases": "relative viability (nuclei count vs DMSO), 5 days (fraction); higher = more cells survive",
  "key": {"[1]": {"compound": "C1=CC2=C(C=CC(=C2)C=C3C(=O)NC(=NCC4=CC=CS4)S3)N=C1 [RO-3306] + Cc1nc(NC(=O)N2CCC[C@H]2C(N)=O)sc1-c1ccnc(C(C)(C)C(F)(F)F)c1 [Alpelisib] (partner 2 µM)", "summary_of_the_method": "(§1)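 Lung cancer cell lines were seeded in 1536-well plates and dosed by pin tool the next day, with either a single drug or a fixed anchor-drug dose combined with five library-drug doses (not always all listed) spaced in √10 steps. Five days later, one step fixed the cells and stained their nuclei (final 0.05% Triton X-100, 1% formaldehyde, 1 ug/ml Hoechst), and nuclei were counted on 4× images. Relative viability is the nuclei count in treated wells divided by the count in vehicle wells, and each value is the median of duplicate plates.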"}, "[2]": {"compound": "C1=CC2=C(C=CC(=C2)C=C3C(=O)NC(=NCC4=CC=CS4)S3)N=C1 [RO-3306] + Nc1ncn([C@H]2C[C@H](O)[C@@H](CO)O2)c(=O)n1 [Decitabine] (partner 2 µM)", "summary_of_the_method": "as §1"}, "[3]": {"compound": "O=S(=O)(c1ccccc1)N(CC(F)(F)F)c1ccc(C(O)(C(F)(F)F)C(F)(F)F)cc1 + Cc1nc(Nc2ncc(C(=O)Nc3c(C)cccc3Cl)s2)cc(N2CCN(CCO)CC2)n1 [Dasatinib] (partner 0.075 µM)", "summary_of_the_method": "as §1"}, "[4]": {"compound": "O=S(=O)(c1ccccc1)N(CC(F)(F)F)c1ccc(C(O)(C(F)(F)F)C(F)(F)F)cc1 + CCNC(=O)c1noc(-c2cc(C(C)C)c(O)cc2O)c1-c1ccc(CN2CCOCC2)cc1 [Luminespib] (partner 0.01 µM)", "summary_of_the_method": "as §1"}},
  "data": [
    {"cell line": "UMC-11", "values": [
      {"measurement": "relative viability", "setting": "[1]; first compound 0.01 µM", "result": 1.03},
      {"measurement": "relative viability", "setting": "[1]; first compound 0.03162 µM", "result": 0.753},
      {"measurement": "relative viability", "setting": "[1]; first compound 0.1 µM", "result": 0.948},
      {"measurement": "relative viability", "setting": "[1]; first compound 0.3162 µM", "result": 1.18},
      {"measurement": "relative viability", "setting": "[1]; first compound 1 µM", "result": 1.12},
      {"measurement": "relative viability", "setting": "[2]; first compound 0.01 µM", "result": 0.569},
      {"measurement": "relative viability", "setting": "[2]; first compound 0.03162 µM", "result": 0.58},
      {"measurement": "relative viability", "setting": "[2]; first compound 0.1 µM", "result": 0.613},
      {"measurement": "relative viability", "setting": "[2]; first compound 0.3162 µM", "result": 0.607},
      {"measurement": "relative viability", "setting": "[2]; first compound 1 µM", "result": 0.583},
      {"measurement": "relative viability", "setting": "[3]; first compound 0.8 µM", "result": 0.561},
      {"measurement": "relative viability", "setting": "[3]; first compound 2.53 µM", "result": 0.531},
      {"measurement": "relative viability", "setting": "[3]; first compound 8 µM", "result": 0.54},
      {"measurement": "relative viability", "setting": "[4]; first compound 0.8 µM", "result": 1.19},
      {"measurement": "relative viability", "setting": "[4]; first compound 2.53 µM", "result": 1.13},
      {"measurement": "relative viability", "setting": "[4]; first compound 8 µM", "result": 1.13}
    ]}
  ]
}
